Results published in paper PMC10175918 (Communications Biology, 2023).
Where two headings read alike, the source gives them in different places.

Assays:
Experiment in all cases: TGFα-shedding assay-based GPCR screening with chimeric Gα subunit proteins
Format in all cases: cell-based
348 GPCRs [1] = biological target: T1, 348 GPCRs (Homo sapiens, UniProt Q8IZF3)
T1 construct: expressed in transfected cells; host or cells: HEK293A
T1 sequence (Q8IZF3 22-695): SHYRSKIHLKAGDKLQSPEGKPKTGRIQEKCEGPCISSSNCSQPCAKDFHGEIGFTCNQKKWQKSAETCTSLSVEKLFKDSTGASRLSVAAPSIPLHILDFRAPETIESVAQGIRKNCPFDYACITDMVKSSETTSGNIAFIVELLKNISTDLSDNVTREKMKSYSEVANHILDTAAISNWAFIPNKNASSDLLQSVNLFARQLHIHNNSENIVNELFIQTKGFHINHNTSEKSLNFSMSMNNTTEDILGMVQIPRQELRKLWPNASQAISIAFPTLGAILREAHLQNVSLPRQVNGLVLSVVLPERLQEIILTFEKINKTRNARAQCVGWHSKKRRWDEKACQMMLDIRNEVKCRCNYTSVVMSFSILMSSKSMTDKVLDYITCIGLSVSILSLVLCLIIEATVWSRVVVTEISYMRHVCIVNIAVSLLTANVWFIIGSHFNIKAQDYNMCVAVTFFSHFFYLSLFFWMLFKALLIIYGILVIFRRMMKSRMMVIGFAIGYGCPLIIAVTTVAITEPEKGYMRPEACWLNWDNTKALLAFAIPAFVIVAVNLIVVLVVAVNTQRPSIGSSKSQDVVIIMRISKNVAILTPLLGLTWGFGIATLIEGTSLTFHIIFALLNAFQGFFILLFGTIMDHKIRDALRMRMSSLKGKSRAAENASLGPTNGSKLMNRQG

348 GPCRs [2] = biological target: 348 GPCRs (Homo sapiens, UniProt P32745); settings: 10µM, Favipiravir 100μM
Sequence of 348 GPCRs (Homo sapiens, UniProt P32745) (P32745 whole entry): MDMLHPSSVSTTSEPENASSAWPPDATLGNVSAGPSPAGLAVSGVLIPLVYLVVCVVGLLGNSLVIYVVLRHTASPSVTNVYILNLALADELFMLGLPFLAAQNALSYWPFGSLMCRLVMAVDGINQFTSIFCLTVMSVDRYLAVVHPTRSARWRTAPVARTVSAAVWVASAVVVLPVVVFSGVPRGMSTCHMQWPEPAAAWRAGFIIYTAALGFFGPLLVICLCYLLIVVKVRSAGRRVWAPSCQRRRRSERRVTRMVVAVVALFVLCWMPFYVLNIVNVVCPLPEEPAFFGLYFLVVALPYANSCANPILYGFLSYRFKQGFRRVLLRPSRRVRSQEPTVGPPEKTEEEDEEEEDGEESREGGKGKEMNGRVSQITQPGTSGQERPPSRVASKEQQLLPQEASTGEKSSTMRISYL

348 GPCRs [3] = biological target: T2, 348 GPCRs (Homo sapiens, UniProt P47893); settings: 10µM, Favipiravir 100μM
T2 construct: expressed in transfected cells; host or cells: HEK293A
T2 sequence (P47893 1-321): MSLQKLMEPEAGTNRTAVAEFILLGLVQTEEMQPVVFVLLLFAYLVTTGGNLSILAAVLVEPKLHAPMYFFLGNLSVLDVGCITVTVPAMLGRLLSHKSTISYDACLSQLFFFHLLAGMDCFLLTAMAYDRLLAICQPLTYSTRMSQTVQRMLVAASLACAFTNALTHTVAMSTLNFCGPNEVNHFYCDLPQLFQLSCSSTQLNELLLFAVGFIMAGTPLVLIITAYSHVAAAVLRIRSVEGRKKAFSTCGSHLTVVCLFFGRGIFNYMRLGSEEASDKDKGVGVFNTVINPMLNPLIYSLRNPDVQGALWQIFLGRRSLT

348 GPCRs [4] = biological target: T3, 348 GPCRs (Homo sapiens, UniProt P25090); settings: 10µM, Favipiravir 100μM
T3 sequence (P25090 1-351): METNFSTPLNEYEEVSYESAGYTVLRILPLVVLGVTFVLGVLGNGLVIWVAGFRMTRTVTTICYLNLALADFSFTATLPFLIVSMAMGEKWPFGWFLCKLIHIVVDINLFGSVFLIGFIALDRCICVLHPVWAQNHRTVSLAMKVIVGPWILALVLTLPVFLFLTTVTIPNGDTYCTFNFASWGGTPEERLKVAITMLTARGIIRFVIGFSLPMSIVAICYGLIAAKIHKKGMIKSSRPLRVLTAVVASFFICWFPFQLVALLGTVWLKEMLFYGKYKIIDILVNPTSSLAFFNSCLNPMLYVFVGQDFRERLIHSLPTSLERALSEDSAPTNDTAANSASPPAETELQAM

348 GPCRs [5] = biological target: T4, 348 GPCRs (Homo sapiens, UniProt P32245)
T4 construct: expressed in transfected cells; host or cells: HEK293A
T4 sequence (P32245 whole entry): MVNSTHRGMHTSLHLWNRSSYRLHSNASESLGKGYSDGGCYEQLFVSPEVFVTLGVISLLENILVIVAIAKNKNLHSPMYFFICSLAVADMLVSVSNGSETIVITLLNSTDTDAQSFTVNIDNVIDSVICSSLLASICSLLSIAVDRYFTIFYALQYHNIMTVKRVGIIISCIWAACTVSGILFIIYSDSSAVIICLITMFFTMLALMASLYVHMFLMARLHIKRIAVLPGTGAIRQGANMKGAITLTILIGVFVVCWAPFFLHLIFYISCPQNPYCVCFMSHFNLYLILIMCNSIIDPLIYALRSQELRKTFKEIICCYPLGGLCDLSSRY

348 GPCRs [6] = biological target: T5, 348 GPCRs (Homo sapiens, UniProt P60893); settings: 10µM, Favipiravir 100μM
T5 construct: expressed in transfected cells; host or cells: HEK293A
T5 sequence (P60893 whole entry): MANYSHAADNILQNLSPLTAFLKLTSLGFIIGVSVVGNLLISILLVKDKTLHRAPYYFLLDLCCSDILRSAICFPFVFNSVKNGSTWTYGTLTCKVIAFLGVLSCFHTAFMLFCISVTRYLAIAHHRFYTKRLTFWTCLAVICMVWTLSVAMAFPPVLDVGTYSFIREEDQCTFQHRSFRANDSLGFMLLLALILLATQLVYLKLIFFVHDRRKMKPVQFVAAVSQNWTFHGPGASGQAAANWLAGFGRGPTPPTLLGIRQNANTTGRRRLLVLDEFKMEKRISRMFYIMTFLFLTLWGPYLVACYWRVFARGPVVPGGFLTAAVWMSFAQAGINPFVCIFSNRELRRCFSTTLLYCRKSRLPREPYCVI

348 GPCRs [7] = biological target: T6, 348 GPCRs (Homo sapiens, UniProt O75388); settings: 10µM, Favipiravir 100μM
T6 construct: expressed in transfected cells; host or cells: HEK293A
T6 sequence (O75388 whole entry): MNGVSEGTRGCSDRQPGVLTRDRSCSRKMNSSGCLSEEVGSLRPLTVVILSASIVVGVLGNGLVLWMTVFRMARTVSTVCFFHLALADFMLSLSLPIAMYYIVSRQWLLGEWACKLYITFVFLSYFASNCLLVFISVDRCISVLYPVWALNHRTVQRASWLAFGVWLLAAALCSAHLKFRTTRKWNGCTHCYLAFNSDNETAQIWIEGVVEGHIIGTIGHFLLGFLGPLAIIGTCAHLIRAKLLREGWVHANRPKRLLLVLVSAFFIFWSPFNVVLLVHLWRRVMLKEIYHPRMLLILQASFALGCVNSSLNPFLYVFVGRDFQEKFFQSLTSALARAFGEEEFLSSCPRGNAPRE

348 GPCRs [8] = biological target: T7, 348 GPCRs (Homo sapiens, UniProt P47871); settings: 10µM, Favipiravir 100μM
T7 construct: expressed in transfected cells; host or cells: HEK293A
T7 sequence (P47871 26-477): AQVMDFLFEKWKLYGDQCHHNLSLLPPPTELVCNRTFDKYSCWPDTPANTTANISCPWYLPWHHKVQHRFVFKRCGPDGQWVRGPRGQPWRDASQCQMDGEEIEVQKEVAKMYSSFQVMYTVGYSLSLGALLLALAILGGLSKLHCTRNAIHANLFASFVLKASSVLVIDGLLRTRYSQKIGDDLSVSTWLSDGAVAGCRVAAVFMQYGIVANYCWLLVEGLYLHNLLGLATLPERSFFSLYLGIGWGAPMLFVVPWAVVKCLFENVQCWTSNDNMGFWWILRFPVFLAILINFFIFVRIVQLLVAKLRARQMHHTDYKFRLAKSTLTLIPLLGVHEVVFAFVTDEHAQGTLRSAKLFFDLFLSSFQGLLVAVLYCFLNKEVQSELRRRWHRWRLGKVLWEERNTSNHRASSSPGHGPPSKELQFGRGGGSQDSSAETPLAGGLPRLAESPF

348 GPCRs [9] = biological target: T8, 348 GPCRs (Homo sapiens, UniProt Q16538); settings: 10µM, Favipiravir 100μM
T8 construct: expressed in transfected cells; host or cells: HEK293A
T8 sequence (Q16538 whole entry): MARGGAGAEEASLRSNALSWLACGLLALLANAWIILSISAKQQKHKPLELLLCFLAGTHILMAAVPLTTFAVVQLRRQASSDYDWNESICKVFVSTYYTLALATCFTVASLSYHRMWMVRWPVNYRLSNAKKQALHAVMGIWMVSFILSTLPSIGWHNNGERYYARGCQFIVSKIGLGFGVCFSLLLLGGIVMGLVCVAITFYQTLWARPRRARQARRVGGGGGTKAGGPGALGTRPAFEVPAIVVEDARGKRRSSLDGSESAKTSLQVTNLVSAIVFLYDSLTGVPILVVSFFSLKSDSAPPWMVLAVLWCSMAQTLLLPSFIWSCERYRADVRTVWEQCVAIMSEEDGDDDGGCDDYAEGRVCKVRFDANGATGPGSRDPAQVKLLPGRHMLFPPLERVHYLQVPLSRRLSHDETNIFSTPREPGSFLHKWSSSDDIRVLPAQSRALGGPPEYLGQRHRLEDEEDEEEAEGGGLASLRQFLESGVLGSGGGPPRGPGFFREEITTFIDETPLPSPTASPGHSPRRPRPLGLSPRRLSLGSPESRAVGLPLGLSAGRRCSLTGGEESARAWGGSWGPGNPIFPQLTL

348 GPCRs [10] = biological target: T9, 348 GPCRs (Homo sapiens, UniProt Q8N6U8); settings: 10µM, Favipiravir 100μM
T9 construct: expressed in transfected cells; host or cells: HEK293A
T9 sequence (Q8N6U8 whole entry): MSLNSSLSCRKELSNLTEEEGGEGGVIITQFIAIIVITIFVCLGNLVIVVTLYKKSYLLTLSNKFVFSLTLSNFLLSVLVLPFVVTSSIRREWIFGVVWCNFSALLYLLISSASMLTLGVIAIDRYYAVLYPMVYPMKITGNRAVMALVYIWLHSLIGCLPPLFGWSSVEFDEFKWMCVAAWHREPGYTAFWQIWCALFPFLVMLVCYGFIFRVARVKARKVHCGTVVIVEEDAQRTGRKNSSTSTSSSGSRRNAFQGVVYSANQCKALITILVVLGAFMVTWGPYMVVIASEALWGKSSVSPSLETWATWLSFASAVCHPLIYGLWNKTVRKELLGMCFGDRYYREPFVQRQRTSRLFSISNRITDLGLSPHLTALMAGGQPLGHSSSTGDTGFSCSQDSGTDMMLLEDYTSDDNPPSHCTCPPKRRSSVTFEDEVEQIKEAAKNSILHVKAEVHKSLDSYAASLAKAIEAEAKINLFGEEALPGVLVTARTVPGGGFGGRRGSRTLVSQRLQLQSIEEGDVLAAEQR

348 GPCRs [11] = biological target: T10, 348 GPCRs (Homo sapiens, UniProt P04201)
T10 construct: expressed in transfected cells; host or cells: HEK293A
T10 sequence (P04201 1-325): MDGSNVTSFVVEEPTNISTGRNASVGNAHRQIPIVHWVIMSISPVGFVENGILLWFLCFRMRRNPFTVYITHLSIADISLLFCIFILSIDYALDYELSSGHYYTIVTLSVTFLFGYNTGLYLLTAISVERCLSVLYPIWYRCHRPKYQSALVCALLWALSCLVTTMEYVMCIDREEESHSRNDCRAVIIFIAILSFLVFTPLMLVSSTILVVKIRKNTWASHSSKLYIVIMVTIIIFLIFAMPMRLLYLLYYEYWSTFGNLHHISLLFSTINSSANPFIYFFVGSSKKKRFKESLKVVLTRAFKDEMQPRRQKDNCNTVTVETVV

348 GPCRs [12] = biological target: 348 GPCRs (Homo sapiens, UniProt P28221); settings: 10µM, Favipiravir 100μM
Sequence of 348 GPCRs (Homo sapiens, UniProt P28221) (P28221 whole entry): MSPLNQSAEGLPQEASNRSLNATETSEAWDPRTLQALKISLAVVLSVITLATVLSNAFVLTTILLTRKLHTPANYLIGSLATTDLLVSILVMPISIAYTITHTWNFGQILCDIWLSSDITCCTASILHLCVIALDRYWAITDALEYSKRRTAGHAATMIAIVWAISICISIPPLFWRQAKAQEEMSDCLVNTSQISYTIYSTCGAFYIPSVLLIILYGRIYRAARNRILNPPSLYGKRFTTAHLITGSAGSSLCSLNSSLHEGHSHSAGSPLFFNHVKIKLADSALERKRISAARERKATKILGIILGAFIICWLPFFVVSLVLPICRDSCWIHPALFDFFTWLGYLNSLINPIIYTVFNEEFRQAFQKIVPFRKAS

[13] = GPCR GPR115 (G-protein-coupled receptor 115 (ADGRF4)), read-out: % GPCR activation compared to TPA
[14] = SSTR3 (somatostatin receptor 3), read-out: % GPCR activation compared to TPA
[15] = OR3A2 (olfactory receptor, family 3, subfamily A, member 2), read-out: % GPCR activation compared to TPA
[16] = FPR2 (formyl peptide receptor 2), read-out: % GPCR activation compared to TPA
[17] = GPCR MC4R (melanocortin 4 receptor), read-out: % GPCR activation compared to TPA
[18] = GPR85 (G protein-coupled receptor 85), read-out: % GPCR activation compared to TPA
[19] = GPR32 (G protein-coupled receptor 32), read-out: % GPCR activation compared to TPA
[20] = GCGR (glucagon receptor), read-out: % GPCR activation compared to TPA
[21] = GPR162 (G Protein-Coupled Receptor 162), read-out: % GPCR activation compared to TPA
[22] = GPR161 (G protein-coupled receptor 161), read-out: % GPCR activation compared to TPA
[23] = GPCR MAS1 (MAS1 oncogene), read-out: % GPCR activation compared to TPA
[24] = 5-HT1D (5-hydroxytryptamine receptor 1D), read-out: % GPCR activation compared to TPA
[25] = read-out: % GPCR activation compared to TPA, GPCR GPR115 (G-protein-coupled receptor 115 (ADGRF4))
[26] = read-out: % GPCR activation compared to TPA, SSTR3 (somatostatin receptor 3)
[27] = read-out: % GPCR activation compared to TPA, OR3A2 (olfactory receptor, family 3, subfamily A, member 2)
[28] = read-out: % GPCR activation compared to TPA, FPR2 (formyl peptide receptor 2)
[29] = read-out: % GPCR activation compared to TPA, GPCR MC4R (melanocortin 4 receptor)
[30] = read-out: % GPCR activation compared to TPA, GPR85 (G protein-coupled receptor 85)
[31] = read-out: % GPCR activation compared to TPA, GPR32 (G protein-coupled receptor 32)
[32] = read-out: % GPCR activation compared to TPA, GCGR (glucagon receptor)
[33] = read-out: % GPCR activation compared to TPA, GPR162 (G Protein-Coupled Receptor 162)
[34] = read-out: % GPCR activation compared to TPA, GPR161 (G protein-coupled receptor 161)
[35] = read-out: % GPCR activation compared to TPA, GPCR MAS1 (MAS1 oncogene)
[36] = read-out: % GPCR activation compared to TPA, 5-HT1D (5-hydroxytryptamine receptor 1D)

Row | activation at 10 µM (348 GPCRs [1]; [13]) [%] | activation at 10 µM (348 GPCRs [2]; [14]) [%] | activation at 10 µM (348 GPCRs [3]; [15]) [%] | activation at 100 µM (348 GPCRs [4]; [16]) [%] | activation at 10 µM (348 GPCRs [5]; [17]) [%] | activation at 100 µM (348 GPCRs [6]; [18]) [%] | activation at 10 µM (348 GPCRs [7]; [19]) [%] | activation at 100 µM (348 GPCRs [8]; [20]) [%] | activation at 10 µM (348 GPCRs [9]; [21]) [%] | activation at 10 µM (348 GPCRs [10]; [22]) [%] | activation at 10 µM (348 GPCRs [11]; [23]) [%] | activation at 100 µM (348 GPCRs [12]; [24]) [%] | Structure (SMILES) | activation at 10 µM (348 GPCRs [1]; [25]) [%] | activation at 10 µM (348 GPCRs [2]; [26]) [%] | activation at 10 µM (348 GPCRs [3]; [27]) [%] | activation at 100 µM (348 GPCRs [4]; [28]) [%] | activation at 10 µM (348 GPCRs [5]; [29]) [%] | activation at 100 µM (348 GPCRs [6]; [30]) [%] | activation at 10 µM (348 GPCRs [7]; [31]) [%] | activation at 100 µM (348 GPCRs [8]; [32]) [%] | further results
1 | -3.61 | 3.54 | -9.89 | -0.97 | 2.19 | 2.04 | 1.37 | 0.277 | -0.758 | -1.6 | -19.1 | -9.87 | N#C[C@@]1(c2ccc3c(N)ncnn23)O[C@H](CO)[C@@H](O)[C@H]1O [GS441524] |  |  |  |  |  |  |  |  | 
2 |  | 1.41 | -0.0334 | -3.31 |  | 3.44 | 0.0718 | 2.23 | -1.13 | -0.46 |  | -9.38 | NC(=O)c1nc(F)cnc1O [favipiravir, 6-fluoro-3-hydroxy-2-pyrazinecarboxamide] |  |  |  |  |  |  |  |  | activation at 100 µM (348 GPCRs [1]; GPCR GPR115 (G-protein-coupled receptor 115 (ADGRF4)), 100μM, read-out: % GPCR activation compared to TPA): -2.79%; activation at 100 µM (348 GPCRs [5]; GPCR MC4R (melanocortin 4 receptor), 100μM, read-out: % GPCR activation compared to TPA): 2.24%; activation at 100 µM (348 GPCRs [11]; GPCR MAS1 (MAS1 oncogene), 100μM, read-out: % GPCR activation compared to TPA): -7.84%
3 | -1.43 | -1.25 | -0.408 | -1.5 | -1.93 | -2.83 | -4.1 | 0.495 | -1.64 | -3.46 | -15.3 | 0.705 | CC(C)C(=O)OC[C@H]1O[C@@H](n2ccc(NO)nc2=O)[C@H](O)[C@@H]1O [molnupiravir] |  |  |  |  |  |  |  |  | 
4 |  |  |  |  |  |  |  |  |  |  |  |  | CCC(CC)COC(=O)[C@H](C)N[P@](=O)(OC[C@H]1O[C@@](C#N)(c2ccc3c(N)ncnn23)[C@H](O)[C@@H]1O)Oc1ccccc1 [remdesivir] | -1.78 | 3.89 | -3.15 | -0.745 | 3.44 | 6.64 | 1.78 | 2.91 | activation at 10 µM (348 GPCRs [9]; [33]): 2.55%; activation at 10 µM (348 GPCRs [10]; [34]): -2.6%; activation at 10 µM (348 GPCRs [11]; [35]): 21.3%; activation at 100 µM (348 GPCRs [12]; [36]): -5.77%
5 |  |  |  |  |  |  |  |  |  |  |  |  | CC(C)OC(=O)[C@H](C)N[P@](=O)(OC[C@H]1O[C@@H](n2ccc(=O)[nH]c2=O)[C@](C)(F)[C@@H]1O)Oc1ccccc1 [sofosbuvir] | -1.19 | -1.81 | -1.07 | -1.57 | -2.6 | -3.71 | -3.92 | -0.806 | activation at 10 µM (348 GPCRs [9]; [33]): 0.48%; activation at 10 µM (348 GPCRs [10]; [34]): -5.59%; activation at 10 µM (348 GPCRs [11]; [35]): 2.48%; activation at 100 µM (348 GPCRs [12]; [36]): 0.836%
